Test results: US20220144812A1, “QUINOLINE DERIVATIVES AND THEIR USE FOR THE TREATMENT OF CANCER” (Epizyme, Inc., priority 2019, published 2022)
Like-named read-outs stand apart in the source and are kept apart here.

Experiments:
[1] = system: 647V cells; test: High throughput proliferation (HTP) assay; type: cell-based; conditions: Homo sapiens, 647-V, read-out: CREBBP HTP IC50
In short: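 Proliferation IC50 (micromolar) derived from a 7-day CellTiter-Glo viable-cell readout in 647V cells exposed, in triplicate, to rising compound concentrations; cells grown in DMEM plus 15% heat-inactivated FBS at 37° C under 5% CO2.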

[2] = target: T1, CREBBP (1084-1701) (Homo sapiens, UniProt Q92793); test: Biochemical assay for CREBBP (1084-1701), SAMDI; conditions: read-out: CREBBP Biochemistry IC50
T1 construct: measured in the following biochemical assay using CREBBP (1084-1701); purchased
T1 sequence (Q92793 1084-1701): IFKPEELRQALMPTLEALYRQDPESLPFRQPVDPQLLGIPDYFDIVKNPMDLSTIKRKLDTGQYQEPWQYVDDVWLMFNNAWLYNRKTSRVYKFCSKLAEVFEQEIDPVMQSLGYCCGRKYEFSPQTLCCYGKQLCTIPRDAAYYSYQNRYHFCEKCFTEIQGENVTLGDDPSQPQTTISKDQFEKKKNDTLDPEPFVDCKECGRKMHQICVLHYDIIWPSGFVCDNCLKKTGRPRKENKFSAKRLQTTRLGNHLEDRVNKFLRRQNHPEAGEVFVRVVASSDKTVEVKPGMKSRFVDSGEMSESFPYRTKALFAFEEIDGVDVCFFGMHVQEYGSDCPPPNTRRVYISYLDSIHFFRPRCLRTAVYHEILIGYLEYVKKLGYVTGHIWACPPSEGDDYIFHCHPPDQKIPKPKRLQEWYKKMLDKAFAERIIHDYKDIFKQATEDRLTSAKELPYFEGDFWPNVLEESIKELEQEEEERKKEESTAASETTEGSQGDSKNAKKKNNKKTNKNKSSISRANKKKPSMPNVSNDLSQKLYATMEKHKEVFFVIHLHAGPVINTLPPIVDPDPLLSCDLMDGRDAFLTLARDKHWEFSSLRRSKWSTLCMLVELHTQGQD
In short: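 Acetyltransferase activity measured by SAMDI mass spectrometry after capture on biochip. Enzyme sat with compound 30 min at RT before acetyl-CoA and biotinylated H3 11-25 (K14R, K23R) peptide were added for 30 min at RT. Formic acid quench, bicarbonate neutralisation; IC50 values reported.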

[3] = system: H3K18Ac in HB-CLS-2 cells; test: H3K18AC in-cell western (ICW) assay; type: cell-based; conditions: read-out: CREBBP ICW IC50
In short: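 In-cell western: after methanol fixation, blocking, overnight 4° C anti-H3K18Ac staining, then 800CW secondary plus DRAQ5 for DNA content, integrated intensities were scanned at 800 and 700 nm. Before this, compound exposure lasted 2 hr at 37° C in HB-CLS-2 cells plated 16–24 hours earlier. Values expressed as IC50 (μM).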

[4] = target: T2, EP300 (P300(1048-1664)) (Homo sapiens, UniProt Q09472); test: Biochemical assay for EP300, SAMDI; conditions: read-out: EP300 Biochemistry IC50
T2 construct: P300(1048-1664)
T2 sequence (Q09472 1048-1664): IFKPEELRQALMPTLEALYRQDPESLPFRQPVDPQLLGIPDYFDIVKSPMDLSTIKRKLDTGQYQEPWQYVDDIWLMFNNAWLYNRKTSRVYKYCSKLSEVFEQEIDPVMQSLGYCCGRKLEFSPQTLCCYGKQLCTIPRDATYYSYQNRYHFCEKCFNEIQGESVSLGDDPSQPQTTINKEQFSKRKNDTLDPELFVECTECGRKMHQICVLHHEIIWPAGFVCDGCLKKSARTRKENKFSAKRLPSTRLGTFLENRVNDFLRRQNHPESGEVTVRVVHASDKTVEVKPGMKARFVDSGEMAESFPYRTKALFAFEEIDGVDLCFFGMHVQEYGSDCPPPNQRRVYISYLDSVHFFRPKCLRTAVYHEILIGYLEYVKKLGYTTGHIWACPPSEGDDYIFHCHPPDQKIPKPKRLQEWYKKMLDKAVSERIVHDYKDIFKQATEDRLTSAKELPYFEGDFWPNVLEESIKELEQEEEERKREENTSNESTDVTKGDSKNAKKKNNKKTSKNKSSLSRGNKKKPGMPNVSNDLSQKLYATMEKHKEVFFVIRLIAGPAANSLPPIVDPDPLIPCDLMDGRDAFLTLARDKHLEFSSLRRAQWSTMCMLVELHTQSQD
Excerpt: The following example describes materials and methods relating to a biochemical assay for EP300. IC50 values (micromolar (μM)) are summarized in Table 1, Table 2, and Table 3 under the column labeled: “EP300 Biochemistry IC50 (micromolar).”

[5] = high throughput proliferation, 647V cells
[6] = H3K18Ac in-cell western, HB-CLS-2 cells

## CCn1ncc(CN(C)C(=O)c2nc(-c3cc(C#N)cc(NCCN(C)C(=O)OC(C)(C)C)c3)nc3ccc(Cl)cc23)c1C [Compound 105]
[1]; high throughput proliferation
  IC50: 1.8 µM
[2]; SAMDI
  IC50: 3.3 µM
[3]; H3K18Ac in-cell western
  IC50: 2.4 µM
[4]; EP300, SAMDI
  IC50: 2.3 µM

## CCn1ncc(CN(C)C(=O)c2nc(-c3cc(C#N)n(C)n3)nc3ccc(Cl)cc23)c1C [Compound 406]
[1]; [5]
  IC50: 20 µM
[2]; SAMDI
  IC50: 50 µM
[3]; [6]
  IC50: 20 µM
[4]; EP300, SAMDI
  IC50: 50 µM

## CCn1ncc(CN(C)C(=O)c2nc(-c3cccc(Cl)c3)nc3c(CNC)cc(Cl)cc23)c1C [Compound 85]
[1]; high throughput proliferation
  IC50: 1.3 µM
[2]; SAMDI
  IC50: 0.18 µM
[3]; H3K18Ac in-cell western
  IC50: 1.3 µM
[4]; EP300, SAMDI
  IC50: 0.4 µM

## CCc1ncc(CN(C)C(=O)c2cc(-c3cc(-c4ncc[nH]4)n(C)n3)nc3ccc(COC)cc23)n1C [Compound 629]
[1]; high throughput proliferation
  IC50: 0.292 µM
[2]; SAMDI
  IC50: 0.034 µM
[3]; H3K18Ac in-cell western
  IC50: 0.256 µM
[4]; EP300, SAMDI
  IC50: 0.0168 µM

## Cc1nc(-c2cc(C(=O)N(C)Cc3cnc(C4CC4)n3C)c3cc(Cl)ccc3n2)ccc1NC1CCN(C)C1 (stereo not drawn) [Compound 640]
[1]; 168 h, 647V cells, day 7, CellTiter-Glo
  IC50: 0.0487 µM
[2]; Peptide #233, Acetyl-CoA, SAMDI mass spectrometry
  IC50: 0.0246 µM
[3]; 2 h, H3K18Ac in HB-CLS-2 cells, 2 hrs compound incubation
  IC50: 0.135 µM
[4]; P300(1048-1664), Peptide #233, Ac-CoA, SAMDI mass spectrometry
  IC50: 0.009 µM

## CCn1ncc(CN(C)C(=O)c2nc(-c3cc(C)cc(NC4CCNC4)c3)nc3ccc(COC)cc23)c1C (stereo not drawn) [Compound 479]
[1]; high throughput proliferation
  IC50: 0.0436 µM
[2]; SAMDI
  IC50: 0.018 µM
[3]; H3K18Ac in-cell western
  IC50: 0.0708 µM
[4]; EP300, SAMDI
  IC50: 0.0101 µM

## CCn1ncc(CN(C)C(=O)c2nc(-c3cc4c(N)noc4cc3C)nc3ccc(Cl)cc23)c1C [Compound 466]
[1]; high throughput proliferation
  IC50: 0.189 µM
[2]; SAMDI
  IC50: 0.0295 µM
[3]; H3K18Ac in-cell western
  IC50: 0.202 µM
[4]; EP300, SAMDI
  IC50: 0.0715 µM

## CCn1ncc(CN(C)C(=O)c2nc(-c3ccc(NC4CCOCC4)cn3)nc3ccc(Cl)cc23)c1C [Compound 58]
[1]; high throughput proliferation
  IC50: 1.4 µM
[2]; SAMDI
  IC50: 1.5 µM
[3]; H3K18Ac in-cell western
  IC50: 0.67 µM
[4]; EP300, SAMDI
  IC50: 0.61 µM

## CCn1ncc(CN(C)C(=O)c2cc(-c3ccc(OCCCO)cn3)nc3ccc(Cl)cc23)c1C [Compound 166]
[1]; high throughput proliferation
  IC50: 11 µM
[2]; SAMDI
  IC50: 28 µM
[3]; H3K18Ac in-cell western
  IC50: 13 µM
[4]; EP300, SAMDI
  IC50: 15 µM

## CCn1ncc(CN(C)C(=O)c2nc(-c3cc(C)cc(NCCN(C)C(=O)OC(C)(C)C)c3)nc3ccc(Cl)cc23)c1C [Compound 99]
[1]; high throughput proliferation
  IC50: 2.1 µM
[2]; SAMDI
  IC50: 2.2 µM
[3]; H3K18Ac in-cell western
  IC50: 2 µM
[4]; EP300, SAMDI
  IC50: 2.6 µM

## CCn1ncc(CN(C)C(=O)c2nc(-c3ccc(OCCN(C)C(=O)OC(C)(C)C)c(Cl)c3)nc3ccc(Cl)cc23)c1C [Compound 151]
[1]; high throughput proliferation
  IC50: 3.2 µM
[2]; SAMDI
  IC50: 2.2 µM
[3]; H3K18Ac in-cell western
  IC50: 8.8 µM
[4]; EP300, SAMDI
  IC50: 2.8 µM

## CCn1ncc(CN(C)C(=O)c2nc(-c3cc(C(F)(F)F)c4[nH]nc(NC)c4c3)nc3ccc(Cl)cc23)c1C [Compound 623]
[1]; high throughput proliferation
  IC50: 0.711 µM
[2]; SAMDI
  IC50: 0.0439 µM
[3]; H3K18Ac in-cell western
  IC50: 0.23 µM
[4]; EP300, SAMDI
  IC50: 0.0283 µM

## CCn1ncc(CN(C)C(=O)c2nc(-c3cc(C)nc(CNC)c3)nc3ccc(Cl)cc23)c1C [Compound 398]
[1]; [5]
  IC50: 4.8 µM
[2]; SAMDI
  IC50: 24 µM
[3]; [6]
  IC50: 8.2 µM
[4]; EP300, SAMDI
  IC50: 22 µM

## CCc1ncc(CN(C)C(=O)c2nc(-c3cc(N)c4cn[nH]c4c3)nc3ccc(COC)cc23)n1C [Compound 500]
[1]; high throughput proliferation
  IC50: 0.409 µM
[2]; SAMDI
  IC50: 0.0253 µM
[3]; H3K18Ac in-cell western
  IC50: 0.371 µM
[4]; EP300, SAMDI
  IC50: 0.0285 µM

## CCn1ncc(CN(C)C(=O)c2nc(-c3cc(C#N)c4nc[nH]c4c3)nc3ccc(COC)cc23)c1C [Compound 475]
[1]; high throughput proliferation
  IC50: 0.757 µM
[2]; SAMDI
  IC50: 0.92 µM
[3]; H3K18Ac in-cell western
  IC50: 0.888 µM
[4]; EP300, SAMDI
  IC50: 0.974 µM

## CCn1ncc(CN(C)C(=O)c2cc(-c3ccc(OCC(=O)NC)c(OC)c3)nc3ccc(Cl)cc23)c1C [Compound 122]
[1]; high throughput proliferation
  IC50: 2.1 µM
[2]; SAMDI
  IC50: 4.5 µM
[3]; H3K18Ac in-cell western
  IC50: 3.6 µM
[4]; EP300, SAMDI
  IC50: 4.3 µM

## CCn1ncc(CN(C)C(=O)c2cc(-c3ccc(NCCO)c(C)n3)nc3ccc(Cl)cc23)c1C [Compound 521]
[1]; high throughput proliferation
  IC50: 0.11 µM
[2]; SAMDI
  IC50: 0.01 µM
[3]; H3K18Ac in-cell western
  IC50: 0.0804 µM
[4]; EP300, SAMDI
  IC50: 0.0071 µM

## CCn1ncc(CN(C)C(=O)c2nc(-c3ccc(OCCN)c(C)c3)nc3ccc(Cl)cc23)c1C [Compound 76]
[1]; high throughput proliferation
  IC50: 0.84 µM
[2]; SAMDI
  IC50: 0.028 µM
[3]; H3K18Ac in-cell western
  IC50: 1.1 µM
[4]; EP300, SAMDI
  IC50: 0.18 µM

## CCn1ncc(CN(C)C(=O)c2nc(-c3cc(CN(C)Cc4ccc(OC)cc4)nn3C)nc3ccc(Cl)cc23)c1C [Compound 176]
[1]; high throughput proliferation
  IC50: 8.2 µM
[2]; SAMDI
  IC50: 86 µM
[3]; H3K18Ac in-cell western
  IC50: 16 µM
[4]; EP300, SAMDI
  IC50: 44 µM

## CCn1ncc(CN(C)C(=O)c2nc(-c3cc(C(=O)NC4CCN(C)CC4)nn3C)nc3ccc(Cl)cc23)c1C [Compound 160]
[1]; high throughput proliferation
  IC50: 5.1 µM
[2]; SAMDI
  IC50: 32 µM
[3]; H3K18Ac in-cell western
  IC50: 11 µM
[4]; EP300, SAMDI
  IC50: 20 µM

## CCn1ncc(CN(C)C(=O)c2nc(-c3cc(C(=O)NCCN4CCCC4)on3)nc3ccc(Cl)cc23)c1C [Compound 169]
[1]; high throughput proliferation
  IC50: 6.7 µM
[2]; SAMDI
  IC50: 8.4 µM
[3]; H3K18Ac in-cell western
  IC50: 13 µM
[4]; EP300, SAMDI
  IC50: 15 µM

## CCn1ncc(CN(C)C(=O)c2cc(-c3cn(C)c(OC)n3)nc3cc(Cl)ccc23)c1C [Compound 185]
[1]; high throughput proliferation
  IC50: 20 µM
[2]; SAMDI
  IC50: 98 µM
[3]; H3K18Ac in-cell western
  IC50: 20 µM
[4]; EP300, SAMDI
  IC50: 56 µM

## CNCCNc1ccc(-c2cc(C(=O)N(C)Cc3onc(C4CC4)c3C)c3cc(Cl)ccc3n2)nc1C [Compound 599]
[1]; high throughput proliferation
  IC50: 1.26 µM
[2]; SAMDI
  IC50: 0.518 µM
[3]; H3K18Ac in-cell western
  IC50: 1.6 µM
[4]; EP300, SAMDI
  IC50: 1.75 µM

## CCn1ncc(CN(C)C(=O)c2cc(-c3ccc(N(C)CCN)nn3)nc3ccc(Cl)cc23)c1C [Compound 505]
[1]; high throughput proliferation
  IC50: 5.96 µM
[2]; SAMDI
  IC50: 4.52 µM
[3]; H3K18Ac in-cell western
  IC50: 2.33 µM
[4]; EP300, SAMDI
  IC50: 3.28 µM

## CCn1ncc(CN(C)C(=O)c2nc(-c3ccc(-c4ccn[nH]4)cc3)nc3ccc(Cl)cc23)c1C [Compound 171]
[1]; high throughput proliferation
  IC50: 7.8 µM
[2]; SAMDI
  IC50: 8.5 µM
[3]; H3K18Ac in-cell western
  IC50: 14 µM
[4]; EP300, SAMDI
  IC50: 3.6 µM

## CCn1ncc(CN(C)C(=O)c2nc(-c3cc(C)cc(NC4CCNCC4)c3)nc3ccc(Cl)cc23)c1C [Compound 55]
[1]; high throughput proliferation
  IC50: 0.24 µM
[2]; SAMDI
  IC50: 0.021 µM
[3]; H3K18Ac in-cell western
  IC50: 0.6 µM
[4]; EP300, SAMDI
  IC50: 0.007 µM

## CCn1ncc(CN(C)C(=O)c2cc(-c3ccc(NCCNC)cn3)nc3ccc(Cl)cc23)c1C [Compound 30]
[1]; high throughput proliferation
  IC50: 0.31 µM
[2]; SAMDI
  IC50: 0.056 µM
[3]; H3K18Ac in-cell western
  IC50: 0.23 µM
[4]; EP300, SAMDI
  IC50: 0.012 µM
